# Species: Rattus norvegicus
# Assay: DrugMatrix - Regimen: Daily Repeat
# Type: toxicity, organism-based, Sprague-Dawley
# Set-up: regimen Daily Repeat, gender Male, age 6-8 weeks
# Details: in vivo, po, route oral GAVAGE, […]; for ABSOLUTE BASOPHIL / ABSOLUTE EOSINOPHIL / ABSOLUTE LYMPHOCYTE / ABSOLUTE MONOCYTE / ABSOLUTE SEGMENTED NEUTROPHIL / BASOPHIL / EOSINOPHIL / ERYTHROCYTE COUNT / HEMATOCRIT / HEMOGLOBIN / LEUKOCYTE COUNT / LYMPHOCYTE / MEAN CORPUSCULAR HEMOGLOBIN / MEAN CORPUSCULAR HEMOGLOBIN CONCENTRATION / MEAN CORPUSCULAR VOLUME / MONOCYTE / NEUTROPHIL / NUCLEATED RED BLOOD CELLS / PLATELET COUNT: tissue Blood; for ALANINE AMINOTRANSFERASE / ALBUMIN / ALKALINE PHOSPHATASE / ASPARTATE AMINOTRANSFERASE / BLOOD UREA NITROGEN / CARBON DIOXIDE / CHLORIDE / CHOLESTEROL / CREATINE PHOSPHOKINASE / CREATININE / GLUCOSE / LACTATE DEHYDROGENASE / LIPASE / PHOSPHORUS / POTASSIUM / SODIUM / TOTAL BILIRUBIN / TOTAL PROTEIN / URIC ACID: tissue Plasma
# [1] = 0 mg/kg, 72 h, dose level Control, time 3 day
# [2] = 0 mg/kg, 120 h, dose level Control, time 5 day
# [3] = 1 mg/kg, 72 h, dose level Low, time 3 day
smiles,measurement,setting,value
O=C(O)COC(=O)Cc1ccccc1Nc1c(Cl)cccc1Cl [ACECLOFENAC],ABSOLUTE BASOPHIL,[1],0 CELLS/uL
same,ABSOLUTE EOSINOPHIL,[1],0 CELLS/uL
same,ABSOLUTE LYMPHOCYTE,[1],9244.83 CELLS/uL
same,ABSOLUTE MONOCYTE,[1],102 CELLS/uL
same,ABSOLUTE SEGMENTED NEUTROPHIL,[1],869.83 CELLS/uL
same,BASOPHIL,[1],0%
same,EOSINOPHIL,[1],0%
same,ERYTHROCYTE COUNT,[1],5.43 x10E6/uL
same,HEMATOCRIT,[1],34.03%
same,HEMOGLOBIN,[1],13.27 G/DL
same,LEUKOCYTE COUNT,[1],10.22 x10E3/uL
same,LYMPHOCYTE,[1],90.33%
same,MEAN CORPUSCULAR HEMOGLOBIN,[1],24.48 pg
same,MEAN CORPUSCULAR HEMOGLOBIN CONCENTRATION,[1],39.03 G/DL
same,MEAN CORPUSCULAR VOLUME,[1],62.75 fL
same,MONOCYTE,[1],1%
same,NEUTROPHIL,[1],8.67%
same,NUCLEATED RED BLOOD CELLS,[1],0.17 /100WBC
same,PLATELET COUNT,[1],989 x10E3/uL
same,ALANINE AMINOTRANSFERASE,[1],77 u/L
same,ALBUMIN,[1],3.97 G/DL
same,ALKALINE PHOSPHATASE,[1],464.83 u/L
same,ASPARTATE AMINOTRANSFERASE,[1],89.83 u/L
same,BLOOD UREA NITROGEN,[1],12.17 mg/dL
same,CARBON DIOXIDE,[1],34.17 mmol/L
same,CHLORIDE,[1],98.33 MEQ/L
same,CHOLESTEROL,[1],75.17 mg/dL
same,CREATINE PHOSPHOKINASE,[1],367.67 u/L
same,CREATININE,[1],0.16 mg/dL
same,GLUCOSE,[1],142.67 mg/dL
same,LACTATE DEHYDROGENASE,[1],139.33 u/L
same,LIPASE,[1],9.5 u/L
same,PHOSPHORUS,[1],10.85 mg/dL
same,POTASSIUM,[1],6.38 MEQ/L
same,SODIUM,[1],143.2 MEQ/L
same,TOTAL BILIRUBIN,[1],0.2 mg/dL
same,TOTAL PROTEIN,[1],5.77 G/DL
same,URIC ACID,[1],0.7 mg/dL
same,ABSOLUTE BASOPHIL,[2],0 CELLS/uL
same,ABSOLUTE EOSINOPHIL,[2],0 CELLS/uL
same,ABSOLUTE LYMPHOCYTE,[2],8295.33 CELLS/uL
same,ABSOLUTE MONOCYTE,[2],84.67 CELLS/uL
same,ABSOLUTE SEGMENTED NEUTROPHIL,[2],970 CELLS/uL
same,BASOPHIL,[2],0%
same,EOSINOPHIL,[2],0%
same,ERYTHROCYTE COUNT,[2],5.74 x10E6/uL
same,HEMATOCRIT,[2],36.22%
same,HEMOGLOBIN,[2],13.85 G/DL
same,LEUKOCYTE COUNT,[2],9.35 x10E3/uL
same,LYMPHOCYTE,[2],88.67%
same,MEAN CORPUSCULAR HEMOGLOBIN,[2],24.13 pg
same,MEAN CORPUSCULAR HEMOGLOBIN CONCENTRATION,[2],38.25 G/DL
same,MEAN CORPUSCULAR VOLUME,[2],63.08 fL
same,MONOCYTE,[2],1%
same,NEUTROPHIL,[2],10.33%
same,NUCLEATED RED BLOOD CELLS,[2],0.17 /100WBC
same,PLATELET COUNT,[2],883.83 x10E3/uL
same,ALANINE AMINOTRANSFERASE,[2],64.5 u/L
same,ALBUMIN,[2],4.12 G/DL
same,ALKALINE PHOSPHATASE,[2],425.67 u/L
same,ASPARTATE AMINOTRANSFERASE,[2],88.5 u/L
same,BLOOD UREA NITROGEN,[2],14.17 mg/dL
same,CARBON DIOXIDE,[2],30.5 mmol/L
same,CHLORIDE,[2],100.33 MEQ/L
same,CHOLESTEROL,[2],55.33 mg/dL
same,CREATINE PHOSPHOKINASE,[2],287.17 u/L
same,CREATININE,[2],0.2 mg/dL
same,GLUCOSE,[2],162.83 mg/dL
same,LACTATE DEHYDROGENASE,[2],111.33 u/L
same,LIPASE,[2],10.5 u/L
same,PHOSPHORUS,[2],10.32 mg/dL
same,POTASSIUM,[2],5.13 MEQ/L
same,SODIUM,[2],143.93 MEQ/L
same,TOTAL BILIRUBIN,[2],0.17 mg/dL
same,TOTAL PROTEIN,[2],5.9 G/DL
same,URIC ACID,[2],0.77 mg/dL
same,ABSOLUTE BASOPHIL,[3],0 CELLS/uL
same,ABSOLUTE EOSINOPHIL,[3],34 CELLS/uL
same,ABSOLUTE LYMPHOCYTE,[3],11265.67 CELLS/uL
same,ABSOLUTE MONOCYTE,[3],0 CELLS/uL
same,ABSOLUTE SEGMENTED NEUTROPHIL,[3],933.67 CELLS/uL
same,BASOPHIL,[3],0%
same,EOSINOPHIL,[3],0.33%
same,ERYTHROCYTE COUNT,[3],5.17 x10E6/uL
same,HEMATOCRIT,[3],32.3%
same,HEMOGLOBIN,[3],12.7 G/DL
same,LEUKOCYTE COUNT,[3],12.23 x10E3/uL
same,LYMPHOCYTE,[3],92.33%
same,MEAN CORPUSCULAR HEMOGLOBIN,[3],24.6 pg
same,MEAN CORPUSCULAR HEMOGLOBIN CONCENTRATION,[3],39.37 G/DL
same,MEAN CORPUSCULAR VOLUME,[3],62.53 fL
same,MONOCYTE,[3],0%
same,NEUTROPHIL,[3],7.33%
same,NUCLEATED RED BLOOD CELLS,[3],0 /100WBC
same,PLATELET COUNT,[3],1096 x10E3/uL
same,ALANINE AMINOTRANSFERASE,[3],63.33 u/L
same,ALBUMIN,[3],4.13 G/DL
same,ALKALINE PHOSPHATASE,[3],435.67 u/L
same,ASPARTATE AMINOTRANSFERASE,[3],81.67 u/L
same,BLOOD UREA NITROGEN,[3],12.33 mg/dL
same,CARBON DIOXIDE,[3],33 mmol/L
same,CHLORIDE,[3],98 MEQ/L
same,CHOLESTEROL,[3],77.33 mg/dL
same,CREATINE PHOSPHOKINASE,[3],224.33 u/L
same,CREATININE,[3],0.13 mg/dL
same,GLUCOSE,[3],132.33 mg/dL
same,LACTATE DEHYDROGENASE,[3],137.33 u/L
same,LIPASE,[3],9.67 u/L
same,PHOSPHORUS,[3],11.77 mg/dL
same,POTASSIUM,[3],6.44 MEQ/L
same,SODIUM,[3],143.43 MEQ/L
same,TOTAL BILIRUBIN,[3],0.2 mg/dL
same,TOTAL PROTEIN,[3],5.9 G/DL
same,URIC ACID,[3],0.77 mg/dL
